Source: patent publication EP2522332A1, “Use of resveratrol and magnesium-ascorbyl-phosphate” (DSM IP Assets B.V., priority 2011, dated 2012)
Read-outs that look alike come from different tables or passages of the source.

Tested on: SILV
Test: Assessment of gene modulation in normal human epidermal melanocytes (NHEM), RT-qPCR / PCR array
Type: cell-based
Settings: for activation at 1000 µg/mL: Homo sapiens, Melanocyte
Experimental: Normal human epidermal melanocytes were cultivated for 24 hours. […] Cells were cultivated for additional 72 hours. All experimental conditions were performed in triplicate.
At the end of the cultivation, the cells were harvested and washed with phosphate buffered saline (PBS) solution and immediately frozen at -80°C. The expression of selected markers was analyzed using RT-qPCR method on mRNA extracted from cells layer for each treatment condition. The differential expression analysis was performed by PCR arrays of the screening format "mQPA H-Melanocyte-64", which focuses on 64 genes selected for their importance in pigmentation and melanocyte biology.
Total RNA was extracted from each sample using TRI-Reagent®. The amount and quality of the RNA was evaluated using a lab-on-a-chip Bioanalyzer (Agilent technologies). Potential contaminants traces of DNA were removed […] The incorporation of fluorescence in amplified DNA was measured continuously during the PCR cycles. […] The value selected for RE calculations is the "output point" (Ct) of the fluorescence curve. For a given marker, the highest is the cycle number; the lowest, is the mRNA quantity. The RE value is expressed in arbitrary units (AU) according to the equation: (((1)/(2)))^NC x 10^6 [formula]
Where NC is the number of cycles.

SMILES | modulation of the gene SILV (NHEM cells, resveratrol alone 5 micrograms/ml, 72 hours) | activation at 1000 µg/mL (NHEM cells treated 72 hours, resveratrol 5 µg/ml, magnesium-ascorbyl-phosphate 1 mg/ml, combination 5 µg/ml + 1 mg/ml, versus control, read-out: SILV (expression level of the gene SILV)) [%] | activation at 1000 µg/mL (NHEM cells, magnesium ascorbyl phosphate 1 mg/ml, 72 hours, read-out: induction of the SILV gene) [%]
Oc1ccc(C=Cc2cc(O)cc(O)c2)cc1 [Resveratrol, 3,4',5 trihydroxystilbene] | did not modulate |  | 
O=C1O[C@H]([C@@H](O)CO)C(O)=C1OP(=O)(O)O [magnesium-ascorbyl-phosphate, magnesium-L-ascorbyl-2-phosphate] |  | 25 | 25
